Data from US20210070687A1, “MOLECULAR WEIGHT CONTROLLING AGENT FOR RADICAL POLYMERIZATION, METHOD FOR PRODUCING POLYMER USING SAME, AND POLYMER” (SDP Global Co., Ltd., priority 2017, published 2021).

Test: Solubility in water at 20° C. of the iodine compounds
Details: % means % by weight

Compound | Solubility in water (20° C.)
CC(C)(I)C(=O)O [Example 1, 2-Iodo-2-methylpropionic acid] | 1.9%
CC(I)C(N)=O (centres unmarked) [Example 2, 2-Iodopropionamide] | 1.2%
CC(C)(I)C(=O)OCCO [Example 3, 2-Hydroxyethyl 2-iodo-2-methylpropionate] | 3.2%
CC(C)(I)C(=O)[O-].[Na+] [Example 5, Sodium 2-iodo-2-methylpropionate] | >10%

The next lines start with the values.

Solubility in water (20° C.) | Compound
>10% | O=C([O-])C(I)c1ccccc1.[Na+] (centres unmarked) [Example 6, Sodium 2-iodo-2-phenylacetate]
0.1% | O=C(O)C(I)c1ccccc1 (centres unmarked) [Reference Example 1, 2-Iodo-2-phenylacetic acid, reference compound]
0.2% | CCOC(=O)C(C)I (centres unmarked) [Reference Example 4, Ethyl 2-iodopropionate, reference compound]
<0.1% | CCOC(=O)C(C)(C)I [Reference Example 5, Ethyl 2-iodo-2-methylpropionate, reference compound]
